Values joined by “and” are separate entries in the source; they are usually repeats but may differ in a detail not shown here. Equal entries are not always repeated.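 96-well plates; 48 h exposure; 5 concentrations. Endpoints by linear interpolation between flanking doses. Not reached: highest tested concentration assigned. Abbreviation: GI50, concentration required for 50% inhibition of growth. TGI denotes the concentration required for complete inhibition of growth.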
How the values were obtained:
Test in all cases: NCI anticancer screen, dose series, 48 h
HOP-92 NSCLC = test system: HOP-92 NSCLC
HS 578T breast = test system: HS 578T breast
UACC-257 melanoma = test system: UACC-257 melanoma
NCI/ADR-RES ovarian = test system: NCI/ADR-RES ovarian
SK-MEL-2 melanoma = test system: SK-MEL-2 melanoma
SNB-75 CNS = test system: SNB-75 CNS
SF-295 CNS = test system: SF-295 CNS
MDA-MB-231 breast = test system: MDA-MB-231 breast
A498 renal = test system: A498 renal
SNB-19 CNS = test system: SNB-19 CNS
A549 NSCLC = test system: A549 NSCLC

| Structure (SMILES) | TGI (HOP-92 NSCLC) | TGI (HS 578T breast) | GI50 (UACC-257 melanoma) | TGI (UACC-257 melanoma) | GI50 (NCI/ADR-RES ovarian) | TGI (NCI/ADR-RES ovarian) | TGI (SK-MEL-2 melanoma) | GI50 (SNB-75 CNS) | TGI (SNB-75 CNS) | GI50 (SF-295 CNS) | TGI (SF-295 CNS) | TGI (MDA-MB-231 breast) | TGI (A498 renal) | TGI (SNB-19 CNS) | TGI (A549 NSCLC) |
| --- | --- | --- | --- | --- | --- | --- | --- | --- | --- | --- | --- | --- | --- | --- | --- |
| O=[N+]([O-])c1cccc2nc3ccccc3c(NCCCCCNc3c4ccccc4nc4cccc([N+](=O)[O-])c34)c12 | 0.0973 µM | 0.512 µM | 0.0619 µM | 0.393 µM and 1.23 µM | 0.297 µM | 2.19 µM and 1.28 µM | 0.285 µM | 0.041 µM | 0.867 µM and 0.827 µM | 0.0226 µM | 0.905 µM and 1.13 µM | 0.0927 µM | 0.248 µM | – | – |
| COC(=O)C1CCC(=O)N1CN(C(C)=O)c1cccc(O)c1 (centres undefined) | > 100 µM | > 100 µM | – | > 100 µM | – | > 100 µM | > 100 µM | – | > 100 µM | – | > 100 µM | > 100 µM | > 100 µM | > 100 µM | > 100 µM |
| C[C@@H](CC(=O)OCc1ccccc1)OC1OC(COC(=O)C(C)(C)C)C(OC(=O)C(C)(C)C)C(OC(=O)C(C)(C)C)C1OC(=O)C(C)(C)C (some centres undefined) | > 100 µM | > 100 µM | – | > 100 µM | – | > 100 µM | > 100 µM | – | > 100 µM | – | > 100 µM | > 100 µM | > 100 µM | > 100 µM | > 100 µM |
| CC(C)C(Cl)CCC(C)(Cl)C(=O)CBr (centres undefined) | 23.8 µM | 23.1 µM | – | 16.6 µM | – | 23.6 µM | 21.9 µM | – | 32.3 µM | – | 41.2 µM | 21.5 µM | 30.3 µM | > 67.3 µM | 53.4 µM |
| O=c1c(-c2ccccc2)nnc2n(Cc3ccccc3)c3ccccc3n12 | > 100 µM | > 100 µM | – | > 100 µM | – | > 100 µM | > 100 µM | – | > 100 µM | – | > 100 µM | > 100 µM | > 100 µM | > 100 µM | > 100 µM |
| S=C1Cc2c(-c3ccccc3)cc(-c3cccc(Cl)c3)nc2-c2ccccc2N1 | 5.12 µM | 6.12 µM | – | 35 µM | – | 8.32 µM | 28.4 µM | – | 5.86 µM | – | 17.2 µM | 5.66 µM | 10.4 µM | 7.97 µM | 22.5 µM |
| Cc1ccc(S[C@@](C=O)(NC(=O)OCc2ccccc2)C(F)(F)F)cc1 | 65.3 µM | > 100 µM | – | > 100 µM | – | 51.8 µM | 60.8 µM | – | 80 µM | – | > 100 µM | 58.7 µM | > 100 µM | 62.4 µM | 88.3 µM |
| COC1(OC)CCc2c(sc3ncnc(Nc4cccc(Br)c4)c23)C1 | > 100 µM | > 100 µM | – | > 100 µM | – | 76.3 µM | > 100 µM | – | 83.2 µM | – | > 100 µM | > 100 µM | > 100 µM | > 100 µM | > 100 µM |
| CC(N)(CC(O)(C(F)(F)Cl)C(F)(F)Cl)C(=O)O (centres undefined) | > 10 µM | > 10 µM | – | > 10 µM | – | > 10 µM | – | – | > 10 µM | – | > 10 µM | > 10 µM | > 10 µM | > 10 µM | > 10 µM |
| COC(=O)[C@@H]1[C@@H]2NC(=S)N[C@@]1(C)Oc1ccccc12 | > 100 µM | > 100 µM | – | > 100 µM | – | > 100 µM | > 100 µM | – | > 100 µM | – | > 100 µM | > 100 µM | > 100 µM | > 100 µM | – |
| CCCCCCCCCCCCCCCCCCNc1ccn(C2OC(COP(=O)(O)OCC3OC(n4ccc(N)nc4=O)C(O)C3O)C(O)C2O)c(=O)n1 (centres undefined) | > 100 µM | > 100 µM | – | > 100 µM | – | > 100 µM | > 100 µM | – | > 100 µM | – | > 100 µM | > 100 µM | > 100 µM | > 100 µM | > 100 µM |
| O=c1[nH]c(N/N=C\C(O)C(O)C(O)C(O)CO)nc2ccccc12 (centres undefined) | > 100 µM | > 100 µM | – | > 100 µM | – | > 100 µM | > 100 µM | – | > 100 µM | – | > 100 µM | > 100 µM | > 100 µM | > 100 µM | > 100 µM |
| CCOc1cnc(C(O)(c2ccccc2)c2ccccc2)o1 | > 100 µM | > 100 µM | – | > 100 µM | – | > 100 µM | > 100 µM | – | > 100 µM | – | > 100 µM | > 100 µM | > 100 µM | > 100 µM | > 100 µM |
| O=C(NCCN(CCNC(=O)c1cccc(O)c1O)CCNC(=O)c1cccc(O)c1O)c1cccc(O)c1O | > 86.9 µM | > 100 µM | – | > 100 µM | – | > 100 µM | > 100 µM | – | > 100 µM | – | > 100 µM | > 100 µM | > 100 µM | > 100 µM | > 100 µM |
| C=CCC(CCC(C)=O)(C(=O)OCC)C(=O)OCC | > 100 µM | > 100 µM | – | > 100 µM | – | > 100 µM | > 100 µM | – | > 100 µM | – | > 100 µM | > 100 µM | > 100 µM | > 100 µM | > 100 µM |
| Cc1c(C)c2c(c(N)c1C#N)C(=O)N(Cc1ccc(S(N)(=O)=O)cc1)C2=O | > 44.6 µM | > 100 µM | – | > 100 µM | – | > 100 µM | > 100 µM | – | > 53.3 µM | – | > 56.6 µM | 73.4 µM | > 70.6 µM | 38.7 µM | > 100 µM |
| CCN(CC)CCNc1ccc([N+](=O)[O-])c2nc3ccc(OC)cc3c(NCCN(CC)CC)c12 | 5.42 µM | 3.91 µM | – | > 10 µM | – | 2.76 µM | 4.87 µM | – | > 5.11 µM | – | 2.6 µM | 2.45 µM | 4.05 µM | 2.78 µM | 3.4 µM |
| N#Cc1c(NC(=O)C(F)(F)F)sc2c3c(=O)c4ccccc4c(=O)c=3oc3ccccc3c12 | > 53.6 µM | 14.6 µM | – | 35.7 µM | – | 61.7 µM | 54.7 µM | – | 39.4 µM | – | 35.8 µM | 67 µM | > 72.3 µM | 49.5 µM | > 77.6 µM |
| Cc1nc2c(sc3nc4c(cc32)CCC4)c(=O)o1 | > 96.4 µM | > 100 µM | – | > 100 µM | – | > 100 µM | > 100 µM | – | > 100 µM | – | > 100 µM | > 100 µM | > 100 µM | > 96.6 µM | > 100 µM |
| N#Cc1sc2nc3ccccc3n2c1N | > 100 µM | > 100 µM | – | > 100 µM | – | > 100 µM | 81.7 µM | – | > 100 µM | – | > 100 µM | > 100 µM | > 100 µM | > 100 µM | > 100 µM |
| CN=c1sc2c(n1C)C(=O)c1ccccc1C2=O | 29.9 µM | 6.16 µM | – | 4.59 µM | – | 16.4 µM | 6.14 µM | – | 4.33 µM | – | 3.77 µM | 33.7 µM | 30.1 µM | 10.1 µM | 3.94 µM |
| COc1cc2nc(Cl)nc(NS(=O)(=O)c3cc4ccccc4s3)c2cc1OC | 46.8 µM | > 100 µM | – | > 100 µM | – | > 100 µM | 61.1 µM | – | 60 µM | – | > 100 µM | 71.7 µM | 35.3 µM | 48.6 µM | > 100 µM |
| CC1=NN(c2nc(N)nc(C(C)Cl)n2)C(C)(C)C1 (centres undefined) | > 100 µM | > 100 µM | – | > 100 µM | – | > 100 µM | > 100 µM | – | > 100 µM | – | > 100 µM | > 100 µM | > 100 µM | > 100 µM | – |
| Cc1ccc(OCC2OC(n3cnc4c(Cl)nc(Nc5cc(Cl)cc(Cl)c5)nc43)CC2Oc2ccc(C)cc2)cc1 (centres undefined) | > 100 µM | > 100 µM | – | > 100 µM | – | > 100 µM | > 100 µM | – | > 100 µM | – | > 100 µM | > 100 µM | > 100 µM | > 100 µM | > 100 µM |
| [B]C(=O)NC(CC(C)C)C(=O)NCC(=O)NC1c2ccsc2C(=O)C1O (centres undefined) (tested in a mixture with another compound) | > 100 µM | > 100 µM | – | > 100 µM | – | > 100 µM | > 100 µM | – | > 100 µM | – | > 100 µM | > 100 µM | > 100 µM | > 100 µM | > 100 µM |
| COc1ccc(-c2oc3cc(-c4cc5oc(-c6ccc(OC)cc6)c(-c6ccc(OC)cc6)c5cc4OC)c(OC)cc3c2-c2ccc(OC)cc2)cc1 | > 100 µM | > 100 µM | – | > 100 µM | – | > 100 µM | – | – | > 100 µM | – | > 100 µM | > 100 µM | > 100 µM | > 100 µM | > 100 µM |
| O=C(Nn1c(-c2ccccc2)nc2ccccc2c1=O)c1ccc(Cl)cc1 | > 100 µM | > 100 µM | – | > 100 µM | – | > 100 µM | – | – | > 100 µM | – | > 100 µM | > 100 µM | > 100 µM | > 100 µM | > 100 µM |
| C=C1CC[C@@H](CCC2CCC3(OC2)O[C@]2(O)CC[C@@]3(C)OC2(C)C)C(C)(C)[C@H]1C/C=C1\CCOC1=O (some centres undefined) | 66.4 µM | > 80.7 µM | – | > 67.6 µM | – | > 100 µM | 48.3 µM | – | > 92.4 µM | – | – | > 80.4 µM | 34.9 µM | > 100 µM | > 100 µM |
| CC(=O)c1ccc(N=NN2CCCC2)cc1 | > 100 µM | > 100 µM | – | > 100 µM | – | > 100 µM | > 100 µM | – | > 100 µM | – | > 100 µM | > 100 µM | 37.3 µM | > 100 µM | – |

Source: PubChem BioAssay (NCI)
